How the values were obtained:
[1] = test system: mice; conditions: for cocaine's locomotor activation, MAO-B inhibitor combined with cocaine: i.p. for 5 days, cocaine 30 mg/kg i.p., total beam breaks, FIGS. 4G and 4H
Method: Open-Field Test. Open-field assessments were conducted as described (Levine et al., 2011; Maze et al., 2010) with brief modifications. The open field is a square arena with the dimensions 47 cm 3 47 cm with a 38.1 cm high clear plastic wall. Activity chambers were computer interfaced for data sampling. Sixteen infrared photobeams in each direction (16×16), 2.77 cm spacing, were used to record movement. The San Diego PAS software recorded the total number of beam breaks, as well as the beam break's location in the center and peripheral areas.
Mice were divided in 5 groups (n=10-12 each). Each group of mice were injected (i.p.) with either CGP3466B or the MAO-B inhibitors deprenyl, rasagiline, lazabemide, and pargyline for 5 days. Mice were allowed to acclimate to the apparatus for 1 hr. After 60 min, mice received saline or cocaine (30 mg/kg of cocaine i.p.), and were returned to the open-field apparatus for a subsequent 75 min in which their activity was recorded. All data was measured in 5 min intervals and aggregated as necessary. Beam breaks or distance traveled for 20 min following cocaine/saline intraperitoneal injection after the first stage of testing were used to determine immediate peak locomotor response from cocaine injection. In between testing of mice, the arena was wiped with Vimoba cleaning solution. Mice were tested at the same time every day in order to minimize any variation due to circadian rhythm changes.

[2] = target: T1, nitrosylation of GAPDH (SNO-GAPDH) (Mus musculus, UniProt P16858); assay: S-nitrosylation biotin switch assay in cocaine-treated primary cortical neurons; format: cell-based; conditions: 16 hr, deprenyl 2 nM, FIG. 4A
T1 sequence (P16858 whole entry): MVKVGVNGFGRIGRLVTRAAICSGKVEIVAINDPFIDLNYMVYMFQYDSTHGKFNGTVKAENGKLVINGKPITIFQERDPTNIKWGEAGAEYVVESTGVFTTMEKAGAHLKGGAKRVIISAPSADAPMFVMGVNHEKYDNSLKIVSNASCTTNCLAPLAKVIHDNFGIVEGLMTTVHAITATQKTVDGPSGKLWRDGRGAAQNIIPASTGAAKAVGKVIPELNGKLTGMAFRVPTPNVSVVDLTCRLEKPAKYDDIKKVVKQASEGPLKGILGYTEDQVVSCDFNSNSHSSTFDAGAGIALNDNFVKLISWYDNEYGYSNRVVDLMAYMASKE
From the text: S-nitrosvlation biotin switch assay.

[3] = test system: striatum; assay: TUNEL assay of cell death in striatum induced by cocaine; format: in vivo, mice; conditions: for cocaine induced cell death in striatum: MAO-B inhibitors with cocaine, FIG. 9B
Method: (§1) TUNEL assay. Primary neurons were grown on coverslips with a density of […] per 12-well. Cells were treated with deprenyl (2 μM), rasagaline (10 μM), lazabemide (10 μM) or pargyline (10 μM) for 16 hr and cell death was measured by TUNEL assays using TUNEL enzyme (Roche) and TUNEL label (Roche) following the manufacturer's instructions (Kickstein et al., 2010). To analysis cell death induced by neurotoxic dose of cocaine, we used TUNEL apoptosis detection kit (Millipore) using manufacturer's protocol (Lathia et al., 2010). Positive nuclei were counted in 30 fields (×400) for each slide.

[4] = test system: mice; assay: Rotarod performance; format: in vivo; conditions: for rotarod performance with cocaine: 5 days: deprenyl 0.25, rasagiline 2.5, pargyline 50, lazabemide 50 mg/kg, then cocaine 50 mg/kg, FIG. 9C
Method: Rotarod Performance. The test was performed as described previously (Xi et al., 2011) with minor modifications. A four-station mouse rotarod device (AccuScan Instruments) was used to study the effects of CGP3466B, Deprenyl, Rasagiline, Lazabemide and Pargyline on cocaine induced operant locomotion in mice. The speed of rotation of the rotarod was increased from 4 to 32 rpm over 7 min.
Mice were divided into 5 groups (n=8). For 5 days prior to testing mice received one dose of deprenyl (0.25 mg/kg), rasagiline (2.5 mg/kg), pargyline (50 mg/kg), lazabemide (50 mg/kg), or saline followed by a high dose of cocaine (50 mg/kg). Mice were placed on the rotarod at a starting speed of 4 rpm, and the speed of the rotarod was increased to 32 rpm over the course of 7 min. This was repeated for a total of three trials in a day, and the latency at which the mice fell off the rotarod was recorded. Mice were tested at the same time every day in order to minimize any variation due to circadian rhythm changes.

[5] = test system: mice; assay: Conditioned place preference; format: in vivo
Method: Conditioned Place Preference. The test was performed as described previously (Levine et al., 2011; Maze et al., 2010; Xi et al., 2011) with minor modifications. Two groups of wild-type mice were used to study the effect of CGP 3466B (0.15 mg/kg) on cocaine-(7 mg/kg) induced conditioned place preference or aversion. A three-chamber place preference apparatus was used. This apparatus consisted of two large side compartments and one small central compartment, which separated the large compartments. Two of the large compartments had different visual and tactile cues. One of the large compartments contained a green wire mesh floor. The second large compartment contained a cream-colored rubber floor. […]
Wild mice were divided into two groups. […] Experimental software (Any-Maze Video Tracking System v. 4.72) measured the amount of time each mouse spent in each of the three compartments.
For the next 10 days (days 2-11), mice entered the conditioning stage of testing with one session per day. […] On the probe trial day (24 hr after the last conditioning session), mice were given an injection of saline then were allowed to freely explore the three compartments for 15 min the time spent in each of the compartments was recorded by computer software. CPP score was calculated as time spent in cocaine chamber minus the time spent in saline/CGP3466B treated chamber.

[6] = test system: p53, PUMA; assay: p53 activation and PUMA induction in striatum after neurotoxic cocaine doses; format: in vivo, mice
Method: Sample Preparation from Cocaine-Injected Mice.
Chromatin immunoprecipitation (ChIP) assay.
Co-Immunoprecipitation. Striatum tissue were lysed in lysis buffer (50 mM Tris pH 7.4, 150 mM NaCl, 0.1% Chaps, 100 nM deferoxamine and 1 mM EDTA) and homogenized by passing through a 26-gauge needle. Crude lysates were cleared of insoluble debris by centrifugation at 14,000 g. IP buffer (50 mM Tris pH 7.4, 150 mM NaCl, 0.1% Chaps, 100 μM deferoxamine, 1 mM EDTA and 0.1 mg/ml BSA) was added to […] of cell lysates to bring samples to a total volume of 1 ml. Anti-Siah and anti-SUV39H1 antibody and 30 μl of protein G agarose were added and incubated on a rotator at 4° C. The protein G agarose was washed four times with lysis buffer and quenched with 30 μl of SDS sample buffer. Co-immunoprecipitates were resolved by SDS-PAGE and analyzed by western blotting with anti-GAPDH and anti-SUV39H1 antibodies.

[7] = Body weight of mice; format: in vivo; conditions: FIG. 8B
[8] = target: GAPDH nitrosylation (Homo sapiens, UniProt P04406); conditions: cited from earlier work; for GAPDH nitrosylation in vitro: as reported earlier (Hara et al., 2006)
GAPDH nitrosylation (Homo sapiens, UniProt P04406), sequence (P04406 whole entry): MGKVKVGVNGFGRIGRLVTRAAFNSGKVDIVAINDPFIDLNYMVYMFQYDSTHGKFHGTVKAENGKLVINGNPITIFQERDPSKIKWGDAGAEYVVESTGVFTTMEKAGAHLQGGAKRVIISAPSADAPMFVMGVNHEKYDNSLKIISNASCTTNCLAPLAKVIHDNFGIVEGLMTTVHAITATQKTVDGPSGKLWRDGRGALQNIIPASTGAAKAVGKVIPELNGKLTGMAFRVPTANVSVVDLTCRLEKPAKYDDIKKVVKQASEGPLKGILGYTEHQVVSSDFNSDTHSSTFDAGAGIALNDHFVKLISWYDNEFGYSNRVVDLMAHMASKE

[9] = target: GAPDH binding to Siah1 (Homo sapiens, UniProt P04406); conditions: resultant of prevented GAPDH nitrosylation; cited from earlier work
GAPDH binding to Siah1, sequence (P04406 whole entry): as above

[10] = test system: monoamine oxidase; conditions: Hara et al., 2006; cited from earlier work
[11] = target: T2, GAPDH nitrosylation (Mus musculus, UniProt P16858); conditions: as reported earlier (Hara et al., 2006); cited from earlier work
T2 construct: in the brains of mice treated with the neurotoxic agent; host or cells: mouse brain
T2 sequence (P16858 whole entry): as the sequence (P16858 whole entry) above

[12] = target: GAPDH (Mus musculus, UniProt P16858); assay: Nuclear translocation of GAPDH in striatum of cocaine-treated mice
GAPDH, sequence (P16858 whole entry): as above

[13] = target: T1, nitrosylation of GAPDH (SNO-GAPDH); assay: S-nitrosylation biotin switch assay on striatum lysates of cocaine-injected mice
[14] = test system: SUV39H1, H3K9 trimethylation, c-fos; assay: Western blot/ChIP of striatum after behavioral-stimulant cocaine doses (SUV39H1, H3K9 trimethylation, c-fos)
[15] = test system: primary cortical neurons; conditions: TUNEL, 16 hr; deprenyl 2 μM, rasagiline, lazabemide, pargyline 10 μM; FIG. 4B
Method: as §1

Which results are given for NCCNC(=O)c1ccc(Cl)cn1 [lazabemide]?
cocaine's locomotor activation, MAO-B inhibitor combined with cocaine [1]: greater locomotor stimulation than cocaine alone; cocaine-induced nitrosylation of GAPDH in cortical cultures [2]: do not prevent; cocaine induced cell death in striatum [3]: do not rescue; rotarod performance with cocaine [4]: do not improve

For C#CCN[C@@H]1CCc2ccccc21 [rasagiline], which “cocaine's locomotor activation, MAO-B inhibitor combined with cocaine” value [1] is on record?
The value was “greater locomotor stimulation than cocaine alone”.

What about the “cocaine-induced nitrosylation of GAPDH in cortical cultures” value (from here on “cocaine-induced nitrosylation of GAPDH”) [2] of the same molecule?
Its value is “do not prevent”.

And the “cocaine induced cell death in striatum” value [3]?
The value was “do not rescue”.

What about the “rotarod performance with cocaine” value [4] of the same molecule?
Its value is “do not improve”.

Which “locomotor stimulation by cocaine” value ([1]; CGP3466B 0.15 mg/kg IP once a day for 5 days, cocaine on the fifth day, open field, FIG. 3H) does the source give for C#CCN(C)CC1=Cc2ccccc2Oc2ccccc21 [CGP3466B, N-(dibenz(b,f)oxepin-10-ylmethyl)-N-methyl-N-prop-2-ynylamine] here?
The value was “substantially reduces”.

And the basal locomotor activity ([1]; CGP3466B 0.15 mg/kg, no cocaine)?
Its basal locomotor activity is “no effect”.

What about the “central or peripheral movement” value ([1]; mouse, in vivo) of the same molecule?
The value was “no adverse effects”.

And the “locomotor stimulation in nNOS knockout mice treated with cocaine” value ([1]; nNOS knockout mice, FIG. 3I)?
Its value is “does not further decrease”.

And the “cocaine preference (conditioned place preference)” value ([5]; CGP3466B 0.15 mg/kg 2 hr before each conditioning injection, cocaine 7 mg/kg, FIG. 3J)?
The value was “reduced”.

What about the “conditioned place preference, single dose only on the day of testing” value ([5]; mice conditioned in the absence of CGP3466B, FIG. 6D) of the same molecule?
Its value is “failed to alter”.

And the “cocaine-induced nitrosylation of GAPDH” value [2]?
Its value is “prevents”.

And the “induction of PUMA level” value ([6]; FIG. 5E)?
The value was “blocks”.

What about the “activation of p53” value ([6]; FIGS. 5C and 5D) of the same molecule?
The value was “blocks”.

What about the “apoptosis (TUNEL) in striatum induced by cocaine” value ([3]; cocaine 30 and 50 mg/kg, chronic treatment with CGP3466B, FIG. 5F) of the same molecule?
Its value is “markedly reduces”.

What about the “increase of latency for falling off the rod” value ([4]; co-treatment with CGP3466B, cocaine 50 mg/kg, FIG. 5G) of the same molecule?
The value was 2.5- to 3 fold.

And the body weight [7]?
Its body weight is “no adverse effects”.

And the “GAPDH nitrosylation in vitro” value [8]?
Its value is “potently inhibits”.

What about the “concentrations at which nitrosylation of GAPDH is prevented” value [8] of the same molecule?
Its value is “subnanomolar”.

And the “GAPDH binding to Siah1” value [9]?
Its value is “inhibition”.

And the “monoamine oxidase inhibitory activity” value [10]?
Its value is “lack monoamine oxidase inhibitory activity”.

And the “GAPDH nitrosylation in the brains of mice treated with MPTP” value [11]?
Its value is “potently inhibits”.

What about the “cocaine-elicited nuclear translocation of GAPDH” value ([12]; behavioral-stimulant doses of cocaine, FIG. 3C) of the same molecule?
Its value is “prevents”.

And the “nuclear translocation of GAPDH at higher doses of cocaine” value ([12]; cocaine 30-50 mg/kg daily for 5 days, FIG. 5B)?
Its value is “prevented”.

And the “stimulation of GAPDH nitrosylation in striatum elicited by cocaine” value ([13]; 0.15 mg/kg CGP3466B, behavioral-stimulant doses of cocaine (5-30 mg/kg), FIG. 7A)?
Its value is “almost completely blocks”.

And the “nitrosylation of GAPDH in the striatum elicited by higher doses of cocaine” value ([13]; cocaine 30-50 mg/kg daily for 5 days with or without CGP3466B, FIG. 5A)?
Its value is “abolished”.

And the “cocaine-elicited change of H3K9 trimethylation” value ([14]; FIG. 3E)?
Its value is “prevented”.

What about the “degradation of SUV39H1” value ([14]; behavioral-stimulant doses of cocaine, FIG. 3D) of the same molecule?
The value was “blocks”.

And the “stimulation of c-fos expression” value ([14]; behavioral-stimulant doses of cocaine, FIGS. 3F-3G)?
Its value is “blocks”.

Which results are given for C#CCN(C)[C@H](C)Cc1ccccc1 [deprenyl, R-(−)-N-methyl-N-(prop-2-ynyl)-2-aminophenylpropane]?
cocaine's locomotor activation, MAO-B inhibitor combined with cocaine [1]: significantly decreases; cocaine-induced nitrosylation of GAPDH in cortical cultures [2]: prevents; cell survival / cell death of primary cortical neurons [15]: no effect; cocaine induced cell death in striatum [3]: do not rescue; rotarod performance with cocaine [4]: do not improve; GAPDH nitrosylation in vitro [8]: potently inhibits; GAPDH nitrosylation in the brains of mice treated with MPTP [11]: potently inhibits

Which “cocaine's locomotor activation, MAO-B inhibitor combined with cocaine” value [1] does the source give for C#CCN(C)Cc1ccccc1 [pargyline] here?
The value was “greater locomotor stimulation than cocaine alone”.

What about the “cocaine-induced nitrosylation of GAPDH” value [2] of the same molecule?
The value was “do not prevent”.

What about the “cocaine induced cell death in striatum” value [3] of the same molecule?
The value was “do not rescue”.

What about the “rotarod performance with cocaine” value [4] of the same molecule?
Its value is “do not improve”.

From patent publication US9937144B2, “Treatment of drug abuse by preventing GAPDH nitrosylation” (THE JOHNS HOPKINS UNIVERSITY, priority 2013, dated 2018)
